Measurements taken from PMC11583740, “Genotype-specific effects of elamipretide in patients with primary mitochondrial myopathy: a post hoc analysis of the MMPOWER-3 trial” (Orphanet Journal of Rare Diseases, 2024).

Key:
[1] = tested on: adult patients with primary mitochondrial myopathy (PMM); details: elamipretide 40 mg s.c. once daily; nDNA cohort n = 59; placebo 0.3 m; p = 0.03; previously published post-hoc analysis; cited from earlier work
Description: Baseline functional characteristics of these patients is described elsewhere. At week 24, subjects in ...

[2] = tested on: adult patients with primary mitochondrial myopathy (PMM); test: Six-Minute Walk Test (6MWT) in the MMPOWER-3 Phase 3 trial, post hoc analysis by genotype; type: in vivo, human
Method: Full details of MMPOWER-3 have been previously described. In brief, MMPOWER-3 was a 24-week, randomized (1:1), double-blind, parallel-group, placebo-controlled clinical trial for adult patients with PMM, in which subjects received elamipretide 40 mg subcutaneously once daily or placebo [6]. In the original analysis of MMPOWER-3, subjects were stratified by the type of pathogenic DNA variant (nDNA vs mtDNA) determined to be the primary cause of PMM as approved by the adjudication committee. Pathogenic DNA variants causing PMM were subclassified as causing mtDNA or nDNA disorders. The prespecified exploratory analysis was conducted to further examine the effects of elamipretide on the change from baseline to week 24 in the 6MWT by genetic subgroups. Subject demographics at baseline have been previously published in detail.
In the original analysis of MMPOWER-3, the efficacy of elamipretide was analyzed by genetic pathogenic variant subclass (mtDNA vs. nDNA) utilizing a mixed model repeated measures (MMRM). In the new exploratory analysis, the effect of elamipretide on the least squares (LS) mean change from baseline in distance walked on the 6MWT at 4 weeks, 12 weeks, and end of treatment (week 24) was examined as a function of gene variants using subjects from the MMPOWER-3 per-protocol population who successfully completed the trial. The analysis evaluated 6MWT results by specific mtDNA and nDNA genotypes. Efficacy in the mtDNA replisome subgroup was further assessed by the presence of the chronic progressive external ophthalmoplegia (CPEO) as a phenotype.

[3] = tested on: subjects with Barth Syndrome; details: after approximately 36 weeks in the 168-week open-label phase; n = 8; p = 0.02; cited from earlier work
Description: NuPOWER was designed to evaluate the efficacy and tolerability of elamipretide in nPMD subjects, with the primary efficacy endpoint being distance walked (meters) on the 6MWT [11]. Elamipretide was also studied in subjects with Barth Syndrome (TAZPOWER, SPIBA-201, NCT03098797), which ...

[4] = tested on: adult patients with primary mitochondrial myopathy (PMM); details: post-hoc genetic subgroup analysis of the co-primary endpoint; previously published; cited from earlier work
Method: Elamipretide is the first experimental therapeutic compound progressing to a Phase 3 clinical trial in patients with PMM (MMPOWER-3). This trial followed the Phase 1/2 (MMPOWER-1) and Phase 2 (MMPOWER-2) clinical trials, in which treatment with elamipretide was analyzed in patients with PMM.

In the case of elamipretide, the “6MWT improvement, nDNA cohort” value [1] is given as 25.2 m, the “6MWT change from baseline, MT-TL1 pathogenic variants” value ([2]; elamipretide 40 mg s.c. once daily, 24 weeks, n = 21, placebo (n = 28) 42.4 m) is given as 25.3 m and the “6MWT improvement (change from baseline), mtDNA replisome post-hoc cohort” value ([2]; elamipretide 40 mg s.c. once daily, mtDNA replisome cohort, placebo 2.0 ± 8.6 m, p = 0.06) is given as 25.2 ± 8.7 m. The “LS mean (SE) change from baseline in 6MWT, replisome variants with CPEO phenotype” value ([2]; elamipretide 40 mg s.c. once daily, week 24, n = 18, baseline mean 316.5 ± 17.5, placebo (n = 14) −8.0 ± 10.7 m, p = 0.0024) was 37.3 ± 9.5 m, the “LS mean (SE) change from baseline in distance walked on 6MWT, mtDNA pathogenic variants” value ([2]; elamipretide 40 mg s.c. once daily, week 24, n = 73, placebo (n = 73) 24.1 ± 6.3 m) was 14.9 ± 6.4 m and the “Between-group difference in 6MWT change, mtDNA pathogenic variants” value ([2]; week 24, elamipretide vs placebo, difference in favor of placebo) was 9.2 m. For the same substance, the “6MWT difference elamipretide vs placebo, single mtDNA deletions” value ([2]; week 24, n = 49) was “no observable differences”, the “Improvement in 6MWT, Barth Syndrome” value [3] was 95.9 m and the “PMMSA TFS, nDNA cohort compared with mtDNA cohort” value [4] was “did not demonstrate a differential effect”.
